# Data from US11406660B2, “Treatment of bone marrow edema (OEDEMA) with polysulfated polysaccharides” (PARADIGM HEALTH SCIENCES PTY LTD, priority 2011, dated 2022).
# Assays:
# OA = settings: cited from earlier work
# [1] = tested on: sub-chondral bone contusion (BME); experiment: Case report Example 3: subject one, knee pain after sub-chondral bone contusion (BME), daily intramuscular PPS; type: in vivo, human; settings: for knee pain: 100 mg intramuscular daily
# Description: For example, in one instance, the pain suffered by a patient was so debilitating that the patient received a total of 7 intramuscular injections (7×1 ml ampoules PPS [7×100 mg]) over a period of 7 day until the pain resolved. This equated to just over 1.0 mg/kg PPS daily.
# A healthy person one with genu varum of approximately 5 degrees slipped on a step at an airport terminal while rushing to catch an international flight such that their left foot made an unexpected high impact with the ground. After arriving at their destination late that evening, the person retired for the night but was woken in the early hours of the morning with intense throbbing pain originating from the medial compartment of their left knee joint.
# [2] = cited from earlier work
# [3] = tested on: subchondral BME in the femoral subchondral bone; experiment: Case report Example 1: subject, knee injury with subchondral BME, course of PPS injections; type: in vivo, human; settings: for BME on T1 weighted MRI: subject, one week after completing 10 x 100 mg/ml IM injections, FIG. 1B vs FIG. 1A
# Description: FIG. 1A is an MRI (T1 weighted scans) of subject […] showing the presence of bone marrow edema in the subchondral bone of the in left femoral condyle. Edema is evidenced by the reduced intensity of the signals in the semi-circular region beneath the articular cartilage. The MRI was taken 5 days following initial joint injury; and
# FIG. 1B is an MRI (T1 weighted scans) of subject […] taken one week after completing a course of 10×100 mg/ml IM injection of pentosan polysulfate. […] Magnification of MRI image shown is slightly higher than for FIG. 1A.
# A subject ([…]) in good general health while jogging on the footpath stumbled and fell laterally striking the pavement with their right knee. Next day the knee was swollen and extremely painful and when examined by a medical practitioner was diagnosed as avulsion of the collateral ligament attachment to tibial bone. […] Five days after sustaining the injury surgical repair was undertaken to re-attach the free ligament bone insertion to the tibia. However the knee pain persisted thereafter and was not relieved by use of analgesics or NSAIDs. Five weeks after the surgery a course of PPS, 100 mg/ml injections administered intramuscularly twice weekly for 5 weeks was initiated (total of 10 injections). After receiving the 6th injection, the pain and joint swelling had disappeared and one week after completion of the PPS course of injections the joint was again reviewed by T1 weighted MM.
substance,measurement,setting,value
pentosan polysulfate [PPS],symptoms in patients with OA,OA,symptomatic relief
same,pain,"[1]; a patient, 7 intramuscular injections (7 x 100 mg) over 7 days, just over 1.0 mg/kg daily",resolved
same,knee pain,"[1]; subject one, after the 7th injection",completely resolved
same,knee pain,"[1]; subject one, following the 5th injection",substantially subsided
same,recurrence of debilitating joint pain,"[1]; subject one, subsequent months following the PPS course of therapy",did not re-occur
same,anticoagulant activity compared with heparin,[2],weaker anticoagulant than heparin
same,pain and joint swelling,"[3]; subject three, 100 mg/ml intramuscularly twice weekly for 5 weeks, after the 6th injection",disappeared
same,BME on T1 weighted MRI,[3],completely resolved
same,BME on T1 weighted MRI,[3]; listed as pentosan polysulfate,absence of bone marrow edema
